According to US9695193B2, “Inhibitors of Plasmodium falciparum equilibrative nucleoside transporter type I as anti-parasitic compounds” (The Trustees of Columbia University in the City of New York, priority 2013, dated 2017):

What follows are compounds tested against T1, PfENT1 (Plasmodium falciparum, UniProt Q8IDM6). Settings: primary HTS, compounds at 10 μM, 125 μM 5-FUrd.
T1 construct: expressed in transfected cells; host or cells: fui1Δ yeast (Saccharomyces cerevisiae), co-expressing GFP
Format: cell-based
Method in brief: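 fui1Δ yeast expressing PfENT1 and GFP were grown with 125 μM 5-fluorouridine, so growth reflects blocked 5-FUrd uptake. Compounds were screened at 10 μM. Growth scored by OD620 turbidity and GFP fluorescence, and hits had to be positive on both.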

T1 sequence (Q8IDM6 whole entry): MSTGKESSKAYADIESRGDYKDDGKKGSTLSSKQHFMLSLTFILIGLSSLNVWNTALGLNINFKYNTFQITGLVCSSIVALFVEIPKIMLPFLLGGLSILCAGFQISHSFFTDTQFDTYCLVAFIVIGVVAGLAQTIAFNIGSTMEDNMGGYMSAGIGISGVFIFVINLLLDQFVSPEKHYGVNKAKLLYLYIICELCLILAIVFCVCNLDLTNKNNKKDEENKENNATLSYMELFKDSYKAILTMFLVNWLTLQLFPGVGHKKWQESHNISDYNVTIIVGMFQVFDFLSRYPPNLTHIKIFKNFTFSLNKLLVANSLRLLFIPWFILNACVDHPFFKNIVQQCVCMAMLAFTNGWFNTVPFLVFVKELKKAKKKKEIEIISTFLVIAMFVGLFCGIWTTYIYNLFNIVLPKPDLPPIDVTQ

Compound	Avg Normalized % maximal activity [%]
Cc1nc(NC(=O)c2oc3ccccc3c2C)sc1C(=O)N(C)C [compound 22, N,N,4-trimethyl-2-{[(3-methyl-1-benzofuran-2-yl)carbonyl]amino}-1,3-thiazole-5-carboxamide]	17.36
CSc1ccccc1C(=O)Nc1nc(=O)c2ccccc2[nH]1 [compound 90, 2-(methylthio)-N-(4-oxo-1,4-dihydro-2-quinazolinyl)benzamide]	5.22
O=C(Nc1cccc(-c2nc3ncccc3o2)c1)c1ccco1 [compound 11, N-(3-[1,3]oxazolo[4,5-b]pyridin-2-ylphenyl)-2-furamide]	32.85
Nc1nc(N)n(-c2ccccc2)n1 [compound 118, 1-phenyl-1H-1,2,4-triazole-3,5-diamine]	4.28
CC(=O)c1ccc(NC(=O)CSc2nc3cc(C)ccc3[nH]2)cc1 [compound 147, N-(4-acetylphenyl)-2-[(5-methyl-1H-benzimidazol-2-yl)thio]acetamide]	2.77
COc1ccc(N(CC(=O)Nc2ccc(Cl)cc2)S(C)(=O)=O)c(OC)c1 [compound 107, N~1~-(4-chlorophenyl)-N~2~-(2,4-dimethoxyphenyl)-N~2~-(methylsulfonyl)glycinamide]	4.67
Cc1cc(=O)oc2cc(OCc3nnc(-c4ccccc4)o3)ccc12 [compound 12, 4-methyl-7-[(5-phenyl-1,3,4-oxadiazol-2-yl)methoxy]-2H-chromen-2-one]	31.72
Cc1c(/C=C/c2nc3ccccc3c(=O)[nH]2)c2ccccc2n1C [compound 34, 2-[2-(1,2-dimethyl-1H-indol-3-yl)vinyl]-4(3H)-quinazolinone]	11.27
CCOc1ccccc1NC(=O)c1cccc(NC(=O)c2ccco2)c1 [compound 31, N-(3-{[(2-ethoxyphenyl)amino]carbonyl}phenyl)-2-furamide]	13.00
COc1ccccc1C(=O)Nc1nnc(COc2ccc(C)cc2)s1 [compound 158, 2-methoxy-N-{5-[(4-methylphenoxy)methyl]-1,3,4-thiadiazol-2-yl}benzamide]	2.12
CCOc1ccc2c(C)cc(=O)oc2c1C [compound 140, 7-ethoxy-4,8-dimethyl-2H-chromen-2-one]	3.21
COc1cccc(C(=O)Nc2ccc(-c3nc4ncccc4o3)cc2C)c1 [compound 89, 3-methoxy-N-(2-methyl-4-[1,3]oxazolo [4,5-b]pyridin-2-ylphenyl)benzamide]	5.35
Cc1cccc(C(=O)Nc2ccc(-c3nnc(-c4ccco4)o3)cc2)c1 [compound 44, N-{4-[5-(2-furyl)-1,3,4-oxadiazol-2-yl]phenyl}-3-methylbenzamide]	9.07
COc1ccc(OC)c(NC(=O)N2CCN(c3cc(Cl)ccc3C)CC2)c1 [compound 124, 4-(5-chloro-2-methylphenyl)-N-(2,5-dimethoxyphenyl)-1-piperazine-carboxamide]	3.95
COc1ccc(C(=O)Nc2ccc(-c3nc4ncccc4o3)cc2C)cc1OC [compound 37, 3,4-dimethoxy-N-(2-methyl-4-[1,3]oxazolo [4,5-b]pyridin-2-ylphenyl)benzamide]	10.61
COc1cccc(C(CC(=O)O)S(C)(=O)=O)c1 (centres unmarked) [compound 159]	2.12
CC1(C)CC(=O)c2sc(NC(=O)c3ccccc3F)nc2C1 [compound 61, N-(5,5-dimethyl-7-oxo-4,5,6,7-tetrahydro-1,3-benzothiazol-2-yl)-2-fluorobenzamide]	7.27
COc1ccc(Cl)cc1C(=O)Nc1cc(C)ccn1 [compound 152, 5-chloro-2-methoxy-N-(4-methyl-2-pyridinyl)benzamide]	2.56

Compound	Avg Normalized % maximal activity [%]
O=c1c2c3nc4ccccc4nc3n(Cc3ccco3)c2ncn1Cc1ccco1 [compound 166]	1.98
COCCNCCOc1ccc(C(C)(C)C)cc1C.O=C(O)C(=O)O [compound 111, [2-(4-tert-butyl-2-methylphenoxy)ethyl](2-methoxyethyl)amine oxalate]	4.58
Cc1ccc2n1CCN(C(=O)c1ccc(S(=O)(=O)N(C)C)cc1)C2C (centres unmarked) [compound 136]	3.43
CCc1nnc(NC(=O)c2sc3nc(C)cc(COC)c3c2N)s1 [compound 108, 3-amino-N-(5-ethyl-1,3,4-thiadiazol-2-yl)-4-(methoxymethyl)-6-methylthieno [2,3-b]pyridine-2-carboxamide]	4.66
O=C(Cc1cccc2ccccc12)Nc1nncs1 [compound 62, 2-(1-naphthyl)-N-1,3,4-thiadiazol-2-ylacetamide]	7.27
O=C(NC(=O)c1ccccc1)Nc1cc(N2CCOCC2)ncn1 [compound 43, N-({[6-(4-morpholinyl)-4-pyrimidinyl]amino}carbonyl) benzamide]	9.52
COc1ccc(NC(=O)C(C)Oc2ccc3oc(=O)cc(C)c3c2)cc1 (centres unmarked) [compound 88, N-(4-methoxyphenyl)-2-[(4-methyl-2-oxo-2H-chromen-6-yl)oxy]propanamide]	5.42
O=C(COc1ccccc1Cl)Nc1ccc(C(=O)N2CCCCC2)cc1 [compound 8, 2-(2-chlorophenoxy)-N-[4-(1-piperidinylcarbonyl)phenyl]acetamide]	54.23
Cc1ccc(NC(=O)CSc2nccn2C)cc1C [compound 115, N-(3,4-dimethylphenyl)-2-[(1-methyl-1H-imidazol-2-yl)thio]acetamide]	4.36
O=C(Nc1ccc(C(=O)N2CCCCC2)cc1)c1cc2ccccc2oc1=O [compound 70, 2-oxo-N-[4-(1-piperidinylcarbonyl)phenyl]-2H-chromene-3-carboxamide]	6.71
Br.Cc1ccnc(Nc2nc(-c3cccnc3)cs2)c1 [compound 146, 4-methyl-N-[4-(3-pyridinyl)-1,3-thiazol-2-yl]-2-pyridinamine hydrobromide]	2.97
CCc1cccc(C)c1NS(=O)(=O)c1cccs1 [compound 36, N-(2-ethyl-6-methylphenyl)-2-thiophenesulfonamide]	11.14
Cn1nc(-c2ccc(C(=O)N3CCCCC3)cc2)c2ccccc2c1=O [compound 59, 2-methyl-4-[4-(1-piperidinylcarbonyl)phenyl]-1(2H)-phthalazinone]	7.59
Cc1cc(=O)oc2cc(OCc3ccc4c(c3)OCO4)ccc12 [compound 134, 7-(1,3-benzodioxol-5-ylmethoxy)-4-methyl-2H-chromen-2-one]	3.56
CCOC(=O)c1ccc(NC(=O)c2nc(SC)ncc2Cl)cc1 [compound 91, ethyl 4-({[5-chloro-2-(methylthio)-4-pyrimidinyl]carbonyl}amino)benzoate]	5.19
COc1ccc(NC(=O)C2CCN(C(=O)c3ccc(F)cc3)CC2)c(OC)c1 [compound 154, N-(2,4-dimethoxyphenyl)-1-(4-fluorobenzoyl)-4-piperidinecarboxamide]	2.30
O=C(Nc1ccc(-c2nnc(-c3ccco3)o2)cc1)C1CCCCC1 [compound 110, N-{4-[5-(2-furyl)-1,3,4-oxadiazol-2-yl]phenyl} cyclohexane-carboxamide]	4.61
